# How the values were obtained:
# MCF-7 (breast) cells = test: MTT antiproliferative assay, MCF-7 cells; type: cell-based; details: Homo sapiens, MCF7, 36 h incubation, read-out: IC50 ± SE, MCF-7
# Experimental: (§1) Compounds L^1−L^10 were evaluated against human cancer cell lines Hela, HepG2, MCF-7, A549, and the normal cell HUVEC with the antiproliferative activities in vitro by MTT assay, and results are summarized as IC50 values in Table 3.
# (§2) Hela, HepG2, MCF-7, A549, and HUVEC cells were used in the antiproliferative activity assay. Cancer cells were seeded in 96-well plates with a density of 10^4 cells per well, after 12 hours of incubation at 5% CO2 and 37 °C, the culture media was removed and cells were incubated with L^1−L^10 dissolved in DMEM at different concentrations (each concentration repeated 3 times) for 36 h at 5% CO2 and 37 °C. Subsequently, removed the culture media and the new culture medium containing MTT (1 mg/mL) was added, followed by incubating for 4 h to allow the formation of formazan dye (Xia et al., [2015]; Zhao et al., [2018]). After removing the medium, 200 μL DMSO was added to each well to dissolve the formazan crystals. Absorbance was measured at 595 nm in a microplate photometer. Cell viability values were determined (at least three times) according to the following formulae: cell viability (%) = the absorbance of experimental group/the absorbance of blank control group ×100%.
# [1] = tested on: HUVEC (umbilical vein) cells; test: MTT cytotoxicity assay, normal HUVEC cells; type: cell-based; details: Homo sapiens, 36 h, 36 h incubation, read-out: IC50 ± SE, HUVEC (toxicity, normal cell)
# Experimental: as §1, §2
# HepG2 (liver) cells = test: MTT antiproliferative assay, HepG2 cells; type: cell-based; details: Homo sapiens, 36 h incubation, read-out: IC50 ± SE, HepG2
# Experimental: as §2
# A549 (lung) cells = test: MTT antiproliferative assay, A549 cells; type: cell-based; details: Homo sapiens, 36 h incubation, read-out: IC50 ± SE, A549
# Experimental: as §1, §2
# Hela (cervix) cells = test: MTT antiproliferative assay, Hela cells; type: cell-based; details: Homo sapiens, 36 h incubation, read-out: IC50 ± SE, Hela
# Experimental: as §1, §2
# pKb = type: physicochemical
Compound,IC50 (MCF-7 (breast) cells),IC50 [1],IC50 (HepG2 (liver) cells),IC50 (A549 (lung) cells),IC50 (Hela (cervix) cells),pKb (pKb),melting point
"COc1cccc2c1C(=O)c1c(O)c3c(c(O)c1C2=O)C[C@@](O)(C(=O)CO)C[C@@H]3O[C@H]1C[C@H](N)[C@H](O)[C@H](C)O1 [DOX, Doxorubicin, reference compound]",14 ± 1.03 µM,4.4 ± 0.55 µM,1.2 ± 0.04 µM,3.35 ± 0.69 µM,3.55 ± 0.17 µM,5.80,
"CC(C)c1ccc2c(c1)CCC1C(C)(CN)CCCC21C (stereo not shown) [L^0, dehydroabietylamine]",19.4 ± 0.39 µM,1.27 ± 0.03 µM,2.56 ± 0.04 µM,5.02 ± 0.19 µM,2.02 ± 0.02 µM,,
"CC(C)c1ccc2c(c1)CCC1C(C)(CN=Cc3cccs3)CCCC21C (stereo not shown) [L^1, 2-thiophene-dehydroabietylamine-Schiff-base]",5.33 ± 0.16 µM,5.98 µM,0.66 ± 0.02 µM,2.11 ± 0.06 µM,9.02 ± 0.25 µM,,
"Cc1ccsc1C=NCC1(C)CCCC2(C)c3ccc(C(C)C)cc3CCC12 (stereo not shown) [L^2, 3-methyl-2-thiophene-dehydroabietylamine-Schiff-base]",14.5 ± 2.48 µM,34 ± 1.57 µM,28.78 ± 0.19 µM,> 100 µM,59.52 ± 0.27 µM,,38.2 to 39.1 °C
"CC(C)c1ccc2c(c1)CCC1C(C)(CN=Cc3ccc(Br)s3)CCCC21C (stereo not shown) [L^3, 5-bromine-2-thiophene-dehydroabietylamine-Schiff-base]",2.65 ± 0.07 µM,16.6 ± 1.08 µM,1.63 ± 0.39 µM,95.5 ± 2.48 µM,54.38 ± 0.38 µM,,
"CC(C)c1ccc2c(c1)CCC1C(C)(CNC(=O)c3cccs3)CCCC21C (stereo not shown) [L^4, 2–thiophene-acyl-dehydroabietylamine]",8.21 ± 0.65 µM,> 100 µM,46 ± 1.13 µM,> 100 µM,14.8 ± 0.22 µM,,
"Cc1ccc(C(=O)NCC2(C)CCCC3(C)c4ccc(C(C)C)cc4CCC23)s1 (stereo not shown) [L^5, 5-methyl-2-thiophene-acyl-dehydroabietylamine]",8.27 ± 0.21 µM,> 100 µM,53.1 ± 1.95 µM,> 100 µM,> 100 µM,,169.4 to 171.7 °C
"CC(C)c1ccc2c(c1)CCC1C(C)(CNC(=O)c3ccc(Br)s3)CCCC21C (stereo not shown) [L^6, 5-bromine-2-thiophene-acyl-dehydroabietylamine]",55.6 ± 2.56 µM,75.5 ± 12.4 µM,51.4 ± 2 µM,94.4 ± 2.56 µM,> 100 µM,,170.7 to 173.2 °C
"CC(C)c1ccc2c(c1)CCC1C(C)(CNC(=O)c3cnccn3)CCCC21C (stereo not shown) [L^7, 2-pyrazine-acyl-dehydroabietylamine]",11.8 ± 0.54 µM,66.8 ± 2.6 µM,24 ± 1.33 µM,83.6 ± 15.7 µM,43.5 ± 1.34 µM,,159.8 to 162.3 °C
"COc1cnc(C(=O)NCC2(C)CCCC3(C)c4ccc(C(C)C)cc4CCC23)cn1 (stereo not shown) [L^8, 5-methoxyl-2-pyrazine-acyl-dehydroabietylamine]",8.81 ± 0.54 µM,95.1 ± 0.97 µM,17.06 ± 0.07 µM,36 ± 2.18 µM,20.2 ± 0.89 µM,,
"Cc1cnc(C(=O)NCC2(C)CCCC3(C)c4ccc(C(C)C)cc4CCC23)cn1 (stereo not shown) [L^9, 5–methyl-2-pyrazine-acyl-dehydroabietylamine]",6.66 ± 0.24 µM,18.9 ± 1.72 µM,44.9 ± 0.75 µM,> 100 µM,52.5 ± 0.54 µM,,130.7 to 133.4 °C
"CC(C)c1ccc2c(c1)CCC1C(C)(CNC(=O)c3cnc(Cl)cn3)CCCC21C (stereo not shown) [L^10, 5-chloro-2-pyrazine-acyl-dehydroabietylamine]",88.8 ± 3.46 µM,29.4 ± 2.35 µM,56.1 ± 6.11 µM,39.6 ± 1.74 µM,> 100 µM,,152.4 to 154.5 °C

# — publication PMC7034089, “Synthesis of novel, DNA binding heterocyclic dehydroabietylamine derivatives as potential antiproliferative and apoptosis-inducing agents” (Drug Delivery, 2020)
